According to PubChem BioAssay (NCI):
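Interpolation was linear, between the two tested concentrations surrounding the appropriate level; five concentrations were tested over 48 hours in 96-well plates. TGI is the concentration that stops growth completely.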

Tests used:
Assay in all cases: NCI anticancer screen, dose series, 48 h
[1] = test system: A498 renal
[2] = test system: A549 NSCLC
[3] = test system: BT-549 breast
[4] = test system: CAKI-1 renal
[5] = test system: CCRF-CEM leukemia
[6] = test system: COLO 205 colon
[7] = test system: DU-145 prostate
[8] = test system: EKVX NSCLC
[9] = test system: HCC-2998 colon
[10] = test system: HCT-116 colon
[11] = test system: HCT-15 colon
[12] = test system: HL-60(TB) leukemia
[13] = test system: HOP-62 NSCLC
[14] = test system: HOP-92 NSCLC
[15] = test system: HS 578T breast
[16] = test system: HT29 colon
[17] = test system: IGROV1 ovarian
[18] = test system: K-562 leukemia
[19] = test system: LOX IMVI melanoma
[20] = test system: M14 melanoma
[21] = test system: MALME-3M melanoma
[22] = test system: MCF7 breast
[23] = test system: MDA-MB-231 breast
[24] = test system: MDA-MB-435
[25] = test system: MDA-N
[26] = test system: MOLT-4 leukemia
[27] = test system: NCI-H226 lung
[28] = test system: NCI-H23 lung
[29] = test system: NCI-H460 lung
[30] = test system: NCI/ADR-RES ovarian
[31] = test system: OVCAR-3 ovarian
[32] = test system: OVCAR-4 ovarian
[33] = test system: OVCAR-5 ovarian
[34] = test system: OVCAR-8 ovarian
[35] = test system: PC-3 prostate
[36] = test system: RXF 393 renal
[37] = test system: SF-268 CNS
[38] = test system: SF-295 CNS
[39] = test system: SF-539 CNS
[40] = test system: SK-MEL-2 melanoma
[41] = test system: SK-MEL-28 melanoma
[42] = test system: SK-MEL-5 melanoma
[43] = test system: SK-OV-3 ovarian
[44] = test system: SN12C renal
[45] = test system: SNB-19 CNS
[46] = test system: SNB-75 CNS
[47] = test system: SR leukemia
[48] = test system: SW-620 colon
[49] = test system: T-47D breast
[50] = test system: TK-10 renal
[51] = test system: U251 CNS
[52] = test system: UACC-257 melanoma
[53] = test system: UACC-62 melanoma
[54] = test system: UO-31 renal
[55] = test system: 786-0 renal
[56] = test system: ACHN renal
[57] = test system: KM12 colon
[58] = test system: NCI-H522 lung
[59] = test system: RPMI-8226 leukemia

COc1cc(C(=O)C2CC3(CCC2(O)c2cc(OC)c(OC)c(OC)c2)CC(=O)Nc2ccccc2C3=O)cc(OC)c1OC (centres undefined)
TGI [1]: > 100 µM | TGI [2]: > 100 µM | TGI [3]: > 100 µM | TGI [4]: > 100 µM | TGI [5]: > 100 µM | TGI [6]: 62.6 µM | TGI [7]: > 100 µM | TGI [8]: > 100 µM | TGI [9]: > 100 µM | TGI [10]: > 100 µM | TGI [11]: > 100 µM | TGI [12]: 78.8 µM | TGI [13]: > 100 µM | TGI [14]: > 100 µM | TGI [15]: > 100 µM | TGI [16]: > 100 µM | TGI [17]: > 100 µM | TGI [18]: > 100 µM | TGI [19]: > 100 µM | TGI [20]: > 100 µM | TGI [21]: > 100 µM | TGI [22]: > 100 µM | TGI [23]: > 100 µM | TGI [24]: > 100 µM | TGI [25]: > 100 µM | TGI [26]: > 100 µM | TGI [27]: > 100 µM | TGI [28]: > 100 µM | TGI [29]: 50.7 µM | TGI [30]: > 100 µM | TGI [31]: > 100 µM | TGI [32]: 57.5 µM | TGI [33]: > 100 µM | TGI [34]: > 100 µM | TGI [35]: > 100 µM | TGI [36]: > 100 µM | TGI [37]: > 100 µM | TGI [38]: > 100 µM | TGI [39]: > 100 µM | TGI [40]: > 100 µM | TGI [41]: > 100 µM | TGI [42]: 81.2 µM | TGI [43]: > 100 µM | TGI [44]: > 100 µM | TGI [45]: > 100 µM | TGI [46]: > 100 µM | TGI [47]: > 100 µM | TGI [48]: > 100 µM | TGI [49]: > 100 µM | TGI [50]: > 100 µM | TGI [51]: > 100 µM | TGI [52]: > 100 µM | TGI [53]: > 100 µM | TGI [54]: > 100 µM

COc1ccc(NC/C=C/C(=C/COC(C)=O)OC(C)=O)cc1
TGI [55]: 2.44 µM | TGI [1]: 3.53 µM | TGI [2]: 33 µM | TGI [56]: 3.29 µM | TGI [3]: 3.16 µM | TGI [4]: 4.18 µM | TGI [5]: 5.12 µM | TGI [6]: 3.4 µM | TGI [7]: 10.2 µM | TGI [8]: 4.99 µM | TGI [9]: 6.84 µM | TGI [10]: 3.55 µM | TGI [11]: 5.1 µM | TGI [13]: 5.18 µM | TGI [14]: 3.87 µM | TGI [15]: 6.12 µM | TGI [17]: 3.56 µM | TGI [18]: 3.62 µM | TGI [57]: 1.99 µM | TGI [19]: 4.79 µM | TGI [20]: 3.19 µM | TGI [21]: 5.57 µM | TGI [22]: > 100 µM | TGI [23]: 3.37 µM | TGI [24]: 3.14 µM | TGI [25]: 4.07 µM | TGI [26]: > 100 µM | TGI [27]: 51.7 µM | TGI [29]: 4.8 µM | TGI [58]: 4.78 µM | TGI [30]: 7.04 µM | TGI [31]: 4.28 µM | TGI [32]: 3.26 µM | TGI [33]: 3.38 µM | TGI [34]: 16.1 µM | TGI [35]: 5.98 µM | TGI [59]: 0.829 µM | TGI [36]: 3.04 µM | TGI [37]: 6.52 µM | TGI [38]: 4.97 µM | TGI [39]: 3.8 µM | TGI [40]: 5.58 µM | TGI [41]: 3.89 µM | TGI [42]: 28.8 µM | TGI [43]: 28.2 µM | TGI [45]: 9.29 µM | TGI [46]: 20.5 µM | TGI [47]: 2.71 µM | TGI [48]: 3.49 µM | TGI [49]: 5.45 µM | TGI [50]: 3.74 µM | TGI [51]: 4.53 µM | TGI [52]: 5.04 µM | TGI [53]: 14.5 µM | TGI [54]: 25 µM

FC(F)(F)c1cccnc1Sc1nc2ccccc2s1
TGI [55]: > 100 µM | TGI [1]: > 100 µM | TGI [2]: > 100 µM | TGI [56]: > 100 µM | TGI [3]: > 100 µM | TGI [4]: > 100 µM | TGI [5]: > 100 µM | TGI [6]: > 100 µM | TGI [7]: > 100 µM | TGI [8]: > 100 µM | TGI [9]: > 100 µM | TGI [10]: > 100 µM | TGI [11]: > 100 µM | TGI [13]: > 100 µM | TGI [14]: > 100 µM | TGI [15]: > 100 µM | TGI [16]: > 100 µM | TGI [17]: > 100 µM | TGI [18]: > 100 µM | TGI [57]: > 100 µM | TGI [20]: > 100 µM | TGI [21]: > 100 µM | TGI [22]: > 100 µM | TGI [23]: > 100 µM | TGI [24]: > 100 µM | TGI [25]: > 100 µM | TGI [26]: > 100 µM | TGI [27]: > 100 µM | TGI [28]: > 100 µM | TGI [29]: > 100 µM | TGI [58]: > 100 µM | TGI [30]: > 100 µM | TGI [31]: > 100 µM | TGI [32]: > 100 µM | TGI [33]: > 100 µM | TGI [34]: > 100 µM | TGI [35]: > 100 µM | TGI [59]: > 100 µM | TGI [36]: > 100 µM | TGI [37]: > 100 µM | TGI [38]: > 100 µM | TGI [39]: > 100 µM | TGI [40]: > 100 µM | TGI [41]: > 100 µM | TGI [42]: > 100 µM | TGI [44]: > 100 µM | TGI [45]: > 100 µM | TGI [46]: > 100 µM | TGI [47]: > 100 µM | TGI [48]: > 100 µM | TGI [49]: > 100 µM | TGI [50]: > 100 µM | TGI [51]: > 100 µM | TGI [52]: > 100 µM | TGI [53]: > 100 µM | TGI [54]: > 100 µM

CC(=O)O[C@@H]1[C@H]2[C@@H](OC(=O)c3ccccc3)[C@@H](C)C[C@]2(O)[C@H](OC(C)=O)[C@@]2(C)[C@@H]3C[C@@](C)(OC(C)=O)C[C@@H](OC(C)=O)[C@@]3(OC(C)=O)C[C@@]12C
TGI [55]: > 10 µM | TGI [1]: > 10 µM | TGI [56]: > 10 µM | TGI [3]: > 10 µM | TGI [4]: > 10 µM | TGI [5]: > 10 µM | TGI [6]: > 10 µM | TGI [7]: > 10 µM | TGI [8]: > 10 µM | TGI [9]: > 10 µM | TGI [10]: > 10 µM | TGI [11]: > 10 µM | TGI [12]: > 10 µM | TGI [13]: > 10 µM | TGI [14]: > 10 µM | TGI [15]: > 10 µM | TGI [17]: > 10 µM | TGI [18]: > 10 µM | TGI [57]: > 10 µM | TGI [19]: > 10 µM | TGI [20]: > 10 µM | TGI [22]: > 10 µM | TGI [23]: > 10 µM | TGI [24]: > 10 µM | TGI [25]: > 10 µM | TGI [26]: > 10 µM | TGI [27]: > 10 µM | TGI [28]: > 10 µM | TGI [29]: > 10 µM | TGI [58]: > 10 µM | TGI [30]: > 10 µM | TGI [31]: > 10 µM | TGI [32]: > 10 µM | TGI [33]: > 10 µM | TGI [34]: > 10 µM | TGI [35]: > 10 µM | TGI [36]: > 10 µM | TGI [37]: > 10 µM | TGI [38]: > 10 µM | TGI [39]: > 10 µM | TGI [40]: > 10 µM | TGI [42]: > 10 µM | TGI [43]: > 10 µM | TGI [44]: > 10 µM | TGI [45]: > 10 µM | TGI [46]: > 10 µM | TGI [47]: > 10 µM | TGI [48]: > 10 µM | TGI [49]: > 10 µM | TGI [50]: > 10 µM | TGI [51]: > 10 µM | TGI [52]: > 10 µM | TGI [53]: > 10 µM | TGI [54]: > 10 µM
